{"source": "patent US20160296644A1", "about": "“ANTICANCER DRUG, COMPRISING A COPPER RADIOISOTOPE” (priority 2013, published 2016)", "key": {"[1]": {"tested_on": "solid tumours, neuroendocrine tumours, melanomas, leukaemias and lymphomas", "test": "Therapeutic effectiveness in cancer pathologies", "conditions": "solid tumours (pancreas, prostate, brain, breast, ovary, head-neck, oesophagus, stomach, intestines, colon, liver, lung)"}, "amyloid plaques": {"tested_on": "amyloid plaques", "test": "Use against Alzheimer's disease (radiotracer / therapeutic agent)", "from_the_text": "In fact, it is capable of binding to the amyloid plaques, the accumulation whereof within the nerve cells characterises the presence of the pathology, and catalyses its formation process. By crossing the blood-brain barrier, the deposit of the subject drug is suitably identified inside said amyloid plaques, providing a diagnostic feedback beyond all doubts.\nIn fact, the drug, by binding to said amyloid plaques, initially stabilises the growth thereof, to then slower it by braking such “drug-plaque” bonds."}, "DNA of the cancer cell": {"tested_on": "DNA of the cancer cell", "test": "Laboratory experimental tests of Auger radioactive effect on cancer cells", "conditions": "dosage 1.5 Bq for each cell", "method": "Said dosage is equal to a 1.5 Bq (Becquerel) for each cell, a quantity such that the therapeutic effectiveness of the drug is carried out through the expression of the toxicity thereof only inside the nucleus, achieving a true target therapy."}}}
{"smiles": "[64Cu+2].[Cl-].[Cl-]", "note": "[64CuCl2, copper-64 chloride]", "values": [{"measurement": "effectiveness as a therapeutic agent for cancer pathologies", "setting": "[1]", "result": "effective"}, {"measurement": "therapeutic agent against neuronal cells affected by the Alzheimer's disease", "setting": "amyloid plaques; average dose 3,700 MBq", "result": "carries out the function of therapeutic agent"}, {"measurement": "radiotracer for the diagnosis of the Alzheimer's disease", "setting": "amyloid plaques; average dose of 370 MBq", "result": "capable of acting as a radiotracer"}, {"measurement": "Auger radioactive effect on DNA of the cancer cell", "setting": "DNA of the cancer cell", "result": "capable of destroying the DNA of the cancer cell"}, {"measurement": "volume of the tumoural lesions in solid tumours", "setting": "DNA of the cancer cell", "result": "reducing the volume of the tumoural lesions in solid tumours"}]}
